Experiments:
S. aureus ATCC 29213 = type: cell-based; design: key to SA 29213: MIC in μM (lowest conc. with no visible growth); conditions: S. aureus 29213, Table 6
Method: (§1) Peptides according to SEQ ID NOs as listed in Table 1 were prepared by a commercial manufacturer (CS Bio, Menlo Park, Calif.) using solid phase synthesis. Antimicrobial activity was assessed by determining the Minimal Inhibitory Concentration (MIC) against S. aureus and E. coli. Briefly, Microbroth MICs were performed using CLSI methodology (VET01-S2). For S. aureus and E. coli ATCC strains, TSA with 5% lysed horse blood agar was used for overnight culturing at 37° C. ambient air. A 0.5 mM stock for each peptide was made with cell culture water, 0.01% acetic acid and serially diluted and spotted (10 μL) in a 96-well plate for in assay dose titration concentration of 50 μM to 0.05 μM. 0.5 McFarland Standard of each strain was diluted 1:250 in Mueller-Hinton Broth (MHB). 90 μL of culture suspension was then added upon drug in the 96-well plate for overnight incubation for 18-20 hours. The MIC was determined visually at the first well of no visible growth at the corresponding concentration.

E. coli ATCC 25922 = type: cell-based; conditions: E. coli 25922, Table 6
Method: as §1

[1] = system: MSSP (Methicillin-Susceptible Staphylococcus pseudintermedius); test: MIC against selected strains of MSSP; type: cell-based; design: MIC MSSP 49051 / MIC MSSP 81923 / MIC MSSP 84250 / Effect on MSSP 86000 / Effect on MSSP 72036 / Effect on MSSP 78032: unit not given beside the values; Effect on MSSP 71990 / Effect on MSSP 86001 / Effect on MSSP 72191 / Effect on MSSP 76986 / Effect on MSSP 77378 / Effect on MSSP 81923 / Effect on MSSP 84250 / Effect on MSSP 84658: unit: µM; conditions: for SP 49051: S. pseudintermedius 49051, Table 6; for Effect on MSSP 71990: strain 71990, Table 5; for Effect on MSSP 72036: strain 72036, Table 5; for Effect on MSSP 72191: strain 72191, Table 5; for Effect on MSSP 76986: strain 76986, Table 5; for Effect on MSSP 77378: strain 77378, Table 5; for Effect on MSSP 78032: strain 78032, Table 5; for Effect on MSSP 81923: strain 81923, Table 5; for Effect on MSSP 84250: strain 84250, Table 5; for Effect on MSSP 84658: strain 84658, Table 5; for Effect on MSSP 86000: strain 86000, Table 5; for Effect on MSSP 86001: strain 86001, Table 5
Summary of the method: (§2)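 Broth microdilution MIC following CLSI VET01-S2: peptides titrated 50 μM to 0.05 μM in assay, inoculum a 0.5 McFarland suspension diluted 1:250 in Mueller-Hinton broth. Incubated overnight (18–20 h); MIC taken visually as lowest concentration without visible growth.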

[2] = system: MRSP (Methicillin-Resistant Staphylococcus pseudintermedius); test: MIC against selected strains of MRSP; type: cell-based; design: key to MIC MRSP 72192 / MIC MRSP 76923 / MR 71994 / Mr 88493 / MR 72035 / MR 72192 / MR 76923 / MR 79882 / MR 80279 / MR 81926 / MR 86002 / MR 87665: MIC in μM (visual, first well with no growth); conditions: for MR 71994: MRSP strain 71994, Table 6; for MR 72035: MRSP strain 72035, Table 6; for MR 72192: MRSP strain 72192, Table 6; for MR 76923: MRSP strain 76923, Table 6; for MR 79882: MRSP strain 79882, Table 6; for MR 80279: MRSP strain 80279, Table 6; for MR 81926: MRSP strain 81926, Table 6; for MR 86002: MRSP strain 86002, Table 6; for MR 87665: MRSP strain 87665, Table 6; for Mr 88493: MRSP strain 88493, Table 6
Summary of the method: as §2

[3] = system: Canine-derived epithelial keratinocyte (CPEK) cells; type: cell-based
Summary of the method: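 CPEK cells were dosed with peptides at 50 μM to 0.05 μM and incubated overnight at 37 °C, 5% CO2. Viability was read by CellTiter-Glo luminescence. Percent effect was normalised to 0.1% Triton X-100 (high) and phosphate buffer alone (zero).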

cRBC = type: cell-based, canine
Summary of the method: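 Washed, plasma-free red cells were incubated with peptide titrated from 50 µM to 0.05 µM for 1 h at 37 °C. Hemolysis was read as OD at 405 nm, scaled between phosphate buffer alone (0%) and 1% Triton X-100 (100%).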

Row | Substance | SA 29213 (S. aureus ATCC 29213) | EC 25922 (E. coli ATCC 25922) [µM] | SP 49051 [1] | Effect on MSSP 71990 [1] | Effect on MSSP 72036 [1] | Effect on MSSP 72191 [1] | Effect on MSSP 76986 [1] | Effect on MSSP 77378 [1] | Effect on MSSP 78032 [1] | Effect on MSSP 81923 [1] | Effect on MSSP 84250 [1] | Effect on MSSP 84658 [1] | Effect on MSSP 86000 [1] | Effect on MSSP 86001 [1] | MR 71994 [2] | MR 72035 [2] | MR 72192 [2] | MR 76923 [2] | MR 79882 [2] | MR 80279 [2] | further results
1 | 105 (KWCFRVCYRGICYRRCRN; Artificial Antimicrobial peptide) [compound 105] | 6.2 | 3.1 | 1.6 | 1.6 | 1.6 | 1.6 | 1.6 | 0.8 | 1.6 | 1.6 | 1.6 | 3.1 | 1.6 | 1.6 | 1.6 | 1.6 | 1.6 | 1.6 | 0.8 | 1.6 | MR 81926 [2]: 1.6; MR 86002 [2]: 1.6; MR 87665 [2]: 1.6; Mr 88493 [2]: 3.1; CPEK (50 μM) [3]: 8.6; cRBC (50 μM) (cRBC): 97.9
2 | 102 (KWCFRACYRGICYRRCRD; Artificial Antimicrobial peptide) [compound 102] | 6.2 | 1.6 | 1.6 | 1.6 | 1.6 | 3.1 | 1.6 | 0.8 | 1.6 | 1.6 | 1.6 | 1.6 | 1.6 | 1.6 | 3.1 | 3.1 | 1.6 | 1.6 | 1.6 | 1.6 | MR 81926 [2]: 1.6; MR 86002 [2]: 1.6; MR 87665 [2]: 1.6; Mr 88493 [2]: 3.1; CPEK (50 μM) [3]: −2.1; cRBC (50 μM) (cRBC): 23.9
3 | 108 (KWCFRVCYGGICYRRCRD; Artificial Antimicrobial peptide) [compound 108] | 12.5 | 0.8 | 3.1 | 3.1 | 3.1 | 3.1 | 3.1 | 3.1 | 3.1 | 3.1 | 3.1 | 3.1 | 3.1 | 3.1 | 3.1 | 3.1 | 3.1 | 3.1 | 3.1 | 3.1 | MR 81926 [2]: 3.1; MR 86002 [2]: 3.1; MR 87665 [2]: 3.1; Mr 88493 [2]: 3.1; CPEK (50 μM) [3]: 9.6; cRBC (50 μM) (cRBC): 27.7
4 | 106 (KWCWRVCYRGICYRRCRD; Artificial Antimicrobial peptide) [compound 106] | 3.1 | 3.1 | 1.6 | 1.6 | 1.6 | 1.6 | 1.6 | 0.8 | 1.6 | 1.6 | 1.6 | 1.6 | 1.6 | 1.6 | 1.6 | 3.1 | 1.6 | 1.6 | 0.8 | 1.6 | MR 81926 [2]: 1.6; MR 86002 [2]: 1.6; MR 87665 [2]: 1.6; Mr 88493 [2]: 3.1; CPEK (50 μM) [3]: 25.2; cRBC (50 μM) (cRBC): 101.5

From US11352396B2, “Antimicrobial peptides and methods of using same” (Zoetis Services LLC, priority 2017, dated 2022)
